Consider six molecules from patent US10568925B2, “Extracts of Curcuma amada and uses thereof” (DHARMA BIOMEDICAL, LLC, priority 2015, dated 2020).

Series [1] has as its system U-87MG human glioblastoma cell line. Kind of series: MTT cytotoxicity in U-87MG glioblastoma cells. The class given is cell-based. As to conditions: 72 hours. How it is done: Human glioblastoma cell line (U-87MG) was purchased from American Type Culture Collection, Manassas, Va. and the cells were grown in RPMI medium supplemented with 10% fetal bovine serum (FBS) and antibiotics in a humidified 5% CO2 incubator maintained at 37° C. The normal mouse embryonic hypothalamus cell line (mHypoE-N1) was purchased from CELLutions Biosystems, Inc, Burlington, Ontario, Canada and was grown in DMEM, supplemented with 10% FBS and antibiotics in the CO2 incubator.
Glioblastoma (U-87MG) cells were treated with increasing concentrations of CA, temozolomide, etoposide or their combination for 72 hours in 96-well plates. MTT [3-(4,5-Dimethyl thiazol-2-yl)-2,5-diphenyltetrazolium bromide] assay performed with the Cell Proliferation Kit I (Roche Biochemicals, IN) was used to analyze cytotoxicity of individual drugs/extracts and their combinations. The experiments were repeated four times with three replications for each treatment and the IC50, IC75 and IC90 values were calculated (Ramachandran et al. 2010; Ramachandran et al. 2012). The relative cytotoxicity of CA in normal mouse hypothalamus cell line (mHypoE-N1) was also analyzed to compare the toxicity and specificity of CA in normal and brain tumor cells.
Mean inhibitory concentrations (ICs) and standard deviation estimates were calculated using Microsoft Excel software using data from three separate experiments. The fraction of surviving cells at each concentration of drugs/combinations was used for the analysis of synergism/additiveness/antagonism between drugs/extracts by the CompuSyn software (ComboSyn, Inc., Paramus, N.J.).

A further series has as its system RD cell line. Put plainly: RT-PCR gene expression, RD. The class given is cell-based, human. As to conditions: 72 h. How it is done: (§1) FIGS. 20A-20B: Gene expression analysis of apoptotic genes (p53, Bcl-2, Bax and Bak) by RT-PCR in eRMS RD (FIG. 20A) and aRMS SJRH30 (FIG. 20B) cells treated with VBL, CP, CA and their combinations. Total RNA was extracted from cells treated with drugs and their combinations for 72 h and RT-PCR assay performed with 5 μg of RNA using gene specific primers. The house keeping gene GAPDH is also amplified as control.
(§2) mRNA expression of apoptosis-associated genes (Bax, Bcl-2, Bak and p53) and inflammation-associated genes (Cox-2, NF-κB and STATS) were analyzed by reverse transcriptase-polymerase chain reaction (Ramachandran et al. 2012). The expression of a house keeping gene, Glyceraldehyde 3-phosphate dehydrogenase (GAPDH) was used as a control. The relative expression of genes was quantified using gel pictures by the UNSCAN-IT GEL′ software (Silk Scientific, Inc., Orem, Utah). Since the ratios of Bax/Bcl-2, Bak/Bcl-2 and Bax/Bak expression were very much associated with the fate of cells undergoing apoptosis, these estimates were calculated and plotted against drug concentrations (Ramachandran et al. 2012).

Series [2] deals with alveolar (SJRH30) rhabdomyosarcoma cell line. Kind of series: MTT cytotoxicity in alveolar rhabdomyosarcoma cells. The class given is cell-based, human. Conditions: for IC50 / IC90: Homo sapiens. How it is done: (§3) Both aRMS (SJRH30) and eRMS (RD) cell lines were purchased from American Type Culture Collection, Manassas, Va. SJRH30 and RD cells were grown in Rosewell Park Memorial Institute 1640 (RPMI 1640) and Dulbecco's Modified Eagle's medium (DMEM), respectively, supplemented with 10% FBS and antibiotics in a 5% CO2 incubator.
(§4) Rhabdomyosarcoma cells were treated with increasing concentrations of drugs and/or extracts for 72 hours in 96-well plates. MTT assay performed with the Cell Proliferation kit I (Roche Biochemicals, IN) was used to analyze cytotoxicity of individual drugs, extracts and their combinations (Ramachandran et al. 2012).
(§5) Mean inhibitory concentrations (ICs) and standard deviation estimates were calculated using Microsoft Excel software. The fraction of surviving cells at each concentration of drugs/combinations was used for the analysis of synergism/additiveness/antagonism between drugs/extracts by the CompuSyn software (ComboSyn, Inc., Paramus, N.J.). Synergism was evaluated by the Combination Index (CI) method of Chou and Talalay (1983) which is based on the median-effect principle. The CIs were calculated by the Chou-Talalay equations for multiple drug effects which take into account both potency (IC values) and shape (slope, m) of dose-effect curve (Ramachandran et al. 2010).

Series [3] has as its system embryonal (RD) rhabdomyosarcoma cell line. Kind of series: MTT cytotoxicity in embryonal rhabdomyosarcoma cells. In kind it is cell-based, human. Conditions: for IC50 / IC90: Homo sapiens, Rhabdomyosarcoma cell. How it is done:
as §3, §4, §5

The subject of the next series is SJRH30 cell line. Put plainly: RT-PCR gene expression, SJRH30. In kind it is cell-based, human. As to conditions: SJRH30, 72 h. How it is done:
as §1, §2

In series [4] the test system is U-87MG nude mice xenografts. Put plainly: Glioblastoma xenograft study. In kind it is in vivo. As to conditions: vs olive oil control; IR 50 mg/kg intraperitoneally, CA (50/mg) gavage; p<0.05. How it is done: FIG. 16: Inhibition of tumor growth rate in U-87MG xenografts treated with olive oil (control), irinotecan (IR), CA, and IR+CA in combination. Xenografts (n=15/group) were administered intraperitoneally with olive oil (control) or IR (50 mg/kg), whereas CA (50/mg) was given gavage (introduction directly to the stomach). Tumor measurements are recorded twice per week and mean±SD estimates of tumor growth rate are plotted against days after treatment (*p<0.05; **p<0.01, ***p<0.001 as compared to control).
FIG. 17: Kaplan-Meier survival curve analysis of glioblastoma (U-87MG) nude mice xenografts treated with olive oil control, IR, CA, and IR+CA. The difference between treatment groups are significant (*p<0.05).

For series [5], the system named is aRMS (SJRH30) nude mice xenografts. Put plainly: Rhabdomyosarcoma xenograft study. In kind it is in vivo. How it is done:
Male athymic nude (nu/nu) mice of the NCrNUstrain (4 weeks old weighing 18-22 g) were purchased from Taconic Labs, German Town, N.Y. Tissue cultured SJRH30 aRMS cells (10^7 cells/site) in 0.1 ml of Hank's balanced salt solution were injected subcutaneously into the left and right flank of the nude mice with a 21-guage needle. When the tumors measured 0.5 cm^3, therapy was started with 20 mice in each group. Treatment groups included control (saline), 2 mg/kg VBL, 10 mg/kg CA and 2 mg/kg VBL+10 mg/kg CA. VBL was dissolved in saline and administered intraperitoneally on alternate days for a total of 10 injections starting on the first day of tumor measurement and treatment. CA was initially dissolved in ethanol and diluted in water so as to make 0.1% alcohol in it and given as drinking water for the entire duration of the study. Tumor size (length×width), body weight and survival data were collected twice a week. Tumor measurements were recorded using a vernier caliper and tumor volume and tumor growth rates were calculated according to the formula described earlier (Ramachandran et al. 2003; 2006). Tumor growth rate data was analyzed by one-way analysis of variance (ANOVA) with Dunnett's multiple comparison test. Survival data was analyzed with Kaplan Meier statistics using Graphpad Prism software and significant differences among treatment groups were calculated.

Where two headings read alike, the source gives them in different places.

For `COc1cc(/C=C/C(=O)CC(=O)/C=C/c2ccc(O)c(OC)c2)ccc1O` [CUR, curcumin], the concentration for an effect of 75% (IC75) in series [1] and in series [1] (listed as curcumin) was 51.00 ± 7.07 µg/mL each time. The concentration for an effect of 90% (IC90) (usually the concentration at which the effect reaches the 90% level) in series [1] is greater than 200 µg/mL; in series [1] (Homo sapiens, read-out: IC90), greater than 200 µg/mL. In addition, the IC50 – broadly, the concentration needed to halve the response being measured – in series [1] (Homo sapiens) worked out at 37.3 ± 4.04 µg/mL.

Turning to `O=P1(N(CCCl)CCCl)NCCCO1` (centres unmarked) [Cyclophosphamide (CP), Cyclophosphamide], the “expression of Bcl-2” value with RD cell line and with SJRH30 cell line was “decrease” each time. Further, the “expression of p53, Bax and Bak” value in the series on RD cell line and in the series with SJRH30 cell line was “increase” each time. Besides, the cell death in series [2] (200 μg/ml dose, aRMS cells) was 45%. In addition, the concentration for half-maximal inhibition (IC50) in series [2] (SJRH30, 72 h) was greater than 200 µg/mL; in series [3] (72 h), 172 ± 8.53 µg/mL. Further, the concentration for an effect of 90% (IC90) in series [2] (SJRH30, 72 h) was greater than 200 µg/mL; in series [3] (72 h), greater than 200 µg/mL. Further, the concentration for an effect of 75% (IC75) (in general, the concentration at which the effect reaches the 75% level) in series [2] (SJRH30, 72 hours, MTT) was greater than 200 µg/mL; in series [3] (RD, 72 hours, MTT) it was greater than 200 µg/mL.

In the case of `COc1cc([C@@H]2c3cc4c(cc3[C@@H](O[C@@H]3O[C@@H]5CO[C@@H](C)O[C@H]5[C@H](O)[C@H]3O)[C@H]3COC(=O)[C@H]23)OCO4)cc(OC)c1O` [ETP, etoposide], in series [1], the IC75 is 127.50 ± 3.53 µg/mL. The IC50 in series [1] (Homo sapiens) came to 6.5 ± 2.54 µg/mL. In addition, the IC90 in series [1] (Homo sapiens, read-out: IC90) is greater than 200 µg/mL.

Regarding `CCc1c2c(nc3ccc(OC(=O)N4CCC(N5CCCCC5)CC4)cc13)-c1cc3c(c(=O)n1C2)COC(=O)[C@]3(O)CC` [IR, irinotecan], the tumor growth rate entry in series [4] is reported as “significantly inhibited”.

For `Cn1nnc2c(C(N)=O)ncn2c1=O` [TMZ, temozolomide], in series [1], the IC75 was greater than 200 µg/mL. Further, the 50% inhibitory concentration (IC50) in series [1] (Homo sapiens) is 176 ± 10.5 µg/mL. For the same molecule, the IC90 in series [1] (Homo sapiens, read-out: IC90) was greater than 200 µg/mL.

As for `CC[C@]1(O)C[C@@H]2CN(CCc3c([nH]c4ccccc34)[C@@](C(=O)OC)(c3cc4c(cc3OC)N(C)[C@H]3[C@@](O)(C(=O)OC)[C@H](OC(C)=O)[C@]5(CC)C=CCN6CC[C@]43[C@@H]65)C2)C1` [Vinblastine (VBL), Vinblastine], the “expression of Bcl-2” value in the series on RD cell line and in the series with SJRH30 cell line was “decrease” throughout. Also, the “expression of p53, Bax and Bak” value in the series on RD cell line and with SJRH30 cell line was “increase” throughout. The concentration for half-maximal inhibition (IC50) in series [2] (SJRH30, 72 hours, MTT, read-out: IC50) was 0.191 ± 0.01 µg/mL; in series [3] (RD, 72 hours, MTT, read-out: IC50) it was 0.01 ± 0.002 µg/mL. Moreover, the IC90 in series [2] (SJRH30, 72 hours, MTT, read-out: IC90) was greater than 200 µg/mL; in series [3] (RD, 72 hours, MTT, read-out: IC90) it was greater than 200 µg/mL. Moreover, the IC75 in series [2] (SJRH30, 72 hours, MTT) was 36.110 ± 2.970 µg/mL; in series [3] (RD, 72 hours, MTT), 0.200 ± 0.010 µg/mL. Moreover, in series [5] (mouse, in vivo), the “weight gain of xenografts / overall weight loss” value is on record as “absence of any overall weight loss”. In addition, the tumor growth rate entry in series [5] (vs saline control, VBL 2 mg/kg intraperitoneally, CA 10 mg/kg in drinking water, p<0.001 by ANOVA) is “significantly inhibited”.
